Laboratory results reported in PMC3783636 (ACS chemical biology, 2013).

Columns and labels:
[1] = known Zn(II) affinity; ref Supporting Information; cited from earlier work
trypsin = conditions: oxidized, triple-stranded β-sheet fold; cited from earlier work
[2] = Midpoint potential determination in DTT redox buffers; conditions: pH 7.0, 75 mM HEPES, DTTred/DTTox redox buffers −230 to −290 mV, 25 µM HD5red or HD5ox, anaerobic, 20 h, rt (ca. 22 °C), HPLC peak areas, global fit

## FluoZin-1 [FZ1]
[1]
  Kd for Zn(II) of the sensor (range in words): micromolar

## Zinpyr-4 [ZP4]
[1]
  Kd for Zn(II) of the sensor (range in words): mid-picomolar

## O=C(O)c1ccccc1NN=C(N=Nc1cc(S(=O)(=O)O)ccc1O)c1ccccc1 [Zincon]
[1]
  Kd for Zn(II) of the sensor (range in words): micromolar

B1: HD5ox: oxidized form of HD5 with three disulfide bonds (peptide, UniProt Q01523 20-94, looked up)
Defensin alpha 5: ESLQERADEATTQKQSGEDNQDLAISFAGNGLSALRTSGSQARATCYCRTGRCATRESLSGVCEISGRLYRLCCR
modifications: Defensin-5 oxidized, three disulfides
trypsin
  stability to trypsin: resistant to degradation

B2: HD5: 32-residue cysteine-rich host-defense peptide; the redox couple HD5ox/HD5red (peptide, UniProt Q01523 20-94, looked up)
Defensin alpha 5: ESLQERADEATTQKQSGEDNQDLAISFAGNGLSALRTSGSQARATCYCRTGRCATRESLSGVCEISGRLYRLCCR
modifications: Defensin-5
[2]
  midpoint potential: −257 mV
